Values joined by “and” are separate entries in the source; they are usually repeats but may differ in a detail not shown here. Equal values may be shown once. Active and inactive are the calls of the source.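 Rule for the calls: active = compounds whose mean IC50 is under 100 micromolar in the phosphatase inhibition dose series; inactive = the rest.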

Intestinal-type alkaline phosphatase (Homo sapiens), sequence (P09923 whole entry, looked up): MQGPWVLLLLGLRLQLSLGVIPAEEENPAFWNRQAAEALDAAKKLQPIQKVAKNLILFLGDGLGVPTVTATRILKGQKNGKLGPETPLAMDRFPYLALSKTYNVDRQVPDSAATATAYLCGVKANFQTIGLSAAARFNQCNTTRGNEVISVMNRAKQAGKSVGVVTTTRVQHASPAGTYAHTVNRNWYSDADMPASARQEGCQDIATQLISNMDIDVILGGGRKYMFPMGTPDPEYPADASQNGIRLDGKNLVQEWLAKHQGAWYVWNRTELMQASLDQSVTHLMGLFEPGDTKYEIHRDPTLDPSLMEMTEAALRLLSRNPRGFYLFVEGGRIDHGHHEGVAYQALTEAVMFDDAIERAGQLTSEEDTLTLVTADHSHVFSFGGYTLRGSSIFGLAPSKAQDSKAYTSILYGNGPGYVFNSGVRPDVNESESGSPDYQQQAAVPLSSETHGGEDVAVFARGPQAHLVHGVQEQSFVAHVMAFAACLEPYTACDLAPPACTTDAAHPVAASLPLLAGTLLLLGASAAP

This experiment has as its target Intestinal-type alkaline phosphatase (Homo sapiens) (UniProt P09923). Briefly: potency of intestinal alkaline phosphatase inhibition – biochemical, luminescence, SAR follow-up (AID 493137). As to conditions: purified human IAP, CDP-Star luminescence, 30 min.
Regarding `COc1ccc(/C=N/N=C2/NC(=O)C(CC(=O)O)S2)cc1OC` (stereo unspecified), the IC50 was > 100 µM (inactive). `COc1ccc(C(=O)NNC(=S)NC2CCCCC2)cc1OC`: the IC50 was > 100 µM (inactive). Turning to `COC(=O)/C=C1\S/C(=N/N=C/c2ccc(Cl)cc2)NC1=O`, the IC50 was > 100 µM (inactive). Next, `NS(=O)(=O)c1ccc(Nc2nc(-c3ccc(O)cc3O)cs2)cc1`: > 100 µM (inactive); `COc1cc(C=NNC(=S)Nc2cccc(C(=O)O)c2)ccc1O`: > 100 µM (inactive). The same measure for `COc1cc(C=NN=C2SC(CC(=O)O)C(=O)N2c2ccc(O)cc2)ccc1O` (stereo unspecified): > 100 µM (inactive); for `CCOc1cc(C=N/N=C2/NC(=O)C(CC(=O)O)S2)ccc1OCc1ccccc1Cl` (stereo unspecified): > 100 µM (inactive); for `Oc1ccc(-c2csc(Nc3cccc4ccccc34)n2)cc1O`: 33 µM and 46.8 µM. For `Cc1cccc(C)c1NC(=S)N/N=C/c1ccc(O)c(O)c1O`, the IC50 was > 100 µM (inactive). The same measure for `O=[N+]([O-])c1ccc(NC(=S)NCCC(c2ccccc2)c2ccccc2)cc1`: > 100 µM (inactive).

In the case of `CCOc1cc(C=NNC(=S)NC2CCCCC2)ccc1O`, the IC50 is > 100 µM (inactive).

As to `COc1cc(C=NNC(=S)Nc2cccc(S(=O)(=O)N(C)C)c2)cc(OC)c1O`, the IC50 is > 100 µM (inactive). In the case of `Cc1ccc(Nc2nc(-c3ccc(O)cc3O)cs2)cc1C`, the IC50 is > 100 µM (inactive). Regarding `CCOc1cc(/C=N/N=C2\NC(=O)C(CC(=O)O)S2)ccc1O` (stereo unspecified), the IC50 is > 100 µM (inactive). Take `CCc1ccccc1Nc1nc(-c2ccc(O)c(O)c2)cs1`: the IC50 was 17.8 µM and 14.5 µM. Regarding `COc1cc(C=NNC(=S)Nc2cccc(S(=O)(=O)N(C)C)c2)ccc1O`, the IC50 was > 100 µM (inactive). Turning to `O=S(=O)(Nc1ncccn1)c1ccc(NC(=S)NCCC(c2ccccc2)c2ccccc2)cc1`, the IC50 is > 100 µM (inactive). Turning to `COc1ccc(-c2csc(Nc3cccc4ccccc34)n2)cc1F`, the IC50 is > 100 µM (inactive). The same measure for `COC(=O)/C=C1/S/C(=N/NC(=O)c2ccccc2C)NC1=O`: > 100 µM (inactive); for `COc1ccc(Cl)cc1Nc1nc(-c2ccc(O)c(O)c2)cs1`: > 100 µM (inactive); for `CCOc1ccc(Nc2nc(-c3ccc(O)c(O)c3)cs2)cc1`: > 100 µM (inactive). The same measure for `COc1cc(C(=O)NNC(=S)Nc2ccc(S(N)(=O)=O)cc2)cc(OC)c1OC`: > 100 µM (inactive); for `NS(=O)(=O)c1ccc(Nc2nc(-c3ccc(O)c(O)c3)cs2)cc1`: 45.1 µM. Next, `O=S(=O)(c1ccc(NC(=S)N/N=C/c2ccc(O)c(O)c2O)cc1)N1CCOCC1`: > 100 µM (inactive). Take `FC(F)(F)c1cccc(NC(=S)NCCC(c2ccccc2)c2ccccc2)c1`: the IC50 is > 100 µM (inactive). The same measure for `COc1ccc(/C=N/N=C2\NC(=O)C(CC(=O)O)S2)c(OC)c1` (stereo unspecified): > 100 µM (inactive). Next, `CCN(CC)S(=O)(=O)c1ccc(-c2csc(=Nc3cccc4ccccc34)n2C)cc1`: > 100 µM (inactive); `COC(=O)/C=C1/S/C(=N/NC(=O)c2ccc(OC)cc2)NC1=O`: > 100 µM (inactive). Next, `Cc1ccc2nc(NNC(=O)c3ccc4c(c3)OCCO4)sc2c1`: > 100 µM (inactive).

Take `Cc1cccc2sc(NNC(=O)c3ccc4c(c3)OCCO4)nc12`: the IC50 was > 100 µM (inactive).

Regarding `Cc1cccc(NC(=S)NNC(=O)c2ccc3c(c2)OCO3)c1`, the IC50 is > 100 µM (inactive). Regarding `COc1cc([N+](=O)[O-])ccc1NC(=S)NCCC(c1ccccc1)c1ccccc1`, the IC50 was > 100 µM (inactive). For `COC(=O)/C=C1/S/C(=N/N=Cc2ccc(N(C)C)cc2)NC1=O`, the IC50 is > 100 µM (inactive). In the case of `COC(=O)/C=C1/S/C(=N/NC(=O)c2ccccc2)NC1=O`, the IC50 was > 100 µM (inactive). Take `Oc1ccc(Nc2nc(-c3ccc(O)c(O)c3)cs2)cc1`: the IC50 was 11.6 µM. Next, `COc1ccc(C=NNC(=S)Nc2ccccc2[N+](=O)[O-])cc1O`: > 100 µM (inactive). For the molecule `S=C(NCCC(c1ccccc1)c1ccccc1)Nc1ccc(Cl)cc1Cl`, the IC50 is > 100 µM (inactive). The same measure for `Cc1c(Cl)cccc1Nc1nc(-c2ccc(O)c(O)c2)cs1`: > 100 µM (inactive) and 96.6 µM; for `COc1ccc(C=Nn2c(=S)n(C)c3ccccc32)cc1OC`: > 100 µM (inactive); for `CC(=NNC(=S)Nc1ccccc1)c1ccc2c(c1)OCO2`: > 100 µM (inactive). As to `COc1ccc(NC(=S)NCCC(c2ccccc2)c2ccccc2)cc1`, the IC50 is > 100 µM (inactive). Next, `Cn1c(=S)n(N=Cc2ccc3c(c2)OCO3)c2ccccc21`: > 100 µM (inactive); `Cc1ccc2sc(NNC(=O)c3ccc4c(c3)OCCO4)nc2c1C`: > 100 µM (inactive); `COc1cc([N+](=O)[O-])ccc1NC(=S)NNC(=O)c1ccc2c(c1)OCO2`: > 100 µM (inactive). The same measure for `Cc1cccc(NC(=S)NN=Cc2ccc3c(c2)OCO3)c1`: > 100 µM (inactive). Take `Oc1ccc(-c2csc(Nc3ccccc3)n2)c(O)c1`: the IC50 was > 100 µM (inactive). For `Cc1ccc(Nc2nc(-c3ccc(O)cc3O)cs2)cc1F`, the IC50 is > 100 µM (inactive). The same measure for `COc1ccc(-c2csc(Nc3cccc4ccccc34)n2)cc1`: > 100 µM (inactive).

`O=[N+]([O-])c1ccccc1NC(=S)N/N=C/c1ccc(O)c(O)c1O`: the IC50 is > 100 µM (inactive). In the case of `COc1cc(/C=N/N=C2\NC(=O)C(CC(=O)O)S2)cc(OC)c1OC` (stereo unspecified), the IC50 was > 100 µM (inactive). The same measure for `CN(C)S(=O)(=O)c1cccc(NC(=S)NN=Cc2ccc(O)c(O)c2O)c1`: > 100 µM (inactive); for `Oc1ccc(-c2csc(Nc3ccc(F)cc3)n2)cc1O`: > 100 µM (inactive); for `Cc1cc(C)cc(Nc2nc(-c3ccc(O)cc3O)cs2)c1`: > 100 µM (inactive).

For the molecule `Cc1ccc(Nc2nc(-c3ccc(O)c(O)c3)cs2)cc1F`, the IC50 is > 100 µM (inactive). Turning to `COC(=O)/C=C1\SC(N=Nc2c(O)[nH]c3ccccc23)=NC1=O`, the IC50 is > 100 µM (inactive). Next, `COC(=O)/C=C1/S/C(=N/NC(=O)c2ccc(Cl)cc2Cl)NC1=O`: > 100 µM (inactive); `COC(=O)/C=C1\S/C(=N/N=C/CC(=O)OC)NC1=O`: > 100 µM (inactive); `Cc1ccc(Nc2nc(-c3ccc(O)c(O)c3)cs2)cc1`: > 100 µM (inactive). Regarding `COc1ccc(C=NN=C2SC(CC(=O)O)C(=O)N2c2ccc(O)cc2)cc1` (stereo unspecified), the IC50 was > 100 µM (inactive). For `Cc1ccc(Cl)cc1Nc1nc(-c2ccc(O)c(O)c2)cs1`, the IC50 was 24.4 µM. The same measure for `COC(=O)/C=C1/S/C(=N/NC(=O)c2ccccc2OC)NC1=O`: > 100 µM (inactive); for `COc1cccc(Nc2nc(-c3ccc(O)cc3)cs2)c1`: > 100 µM (inactive).

`Cc1ccc(C)c(Nc2nc(-c3ccc(O)cc3O)cs2)c1`: the IC50 was > 100 µM (inactive). Consider `Cc1cc(=O)oc2cc(NC(=S)NCCC(c3ccccc3)c3ccccc3)ccc12`, for which the IC50 was > 100 µM (inactive).

As for `Cc1ccc(Nc2nc(-c3ccc(O)c(C(N)=O)c3)cs2)cc1`, the IC50 was > 100 µM (inactive). For `O=[N+]([O-])c1ccccc1NC(=S)NN=Cc1ccc(O)c(O)c1`, the 50% inhibitory concentration (IC50) is 76 µM. Take `CC(C)(C)c1ccc(/C=N/N=C2\NC(=O)C(CC(=O)O)S2)cc1` (stereo unspecified): the IC50 is > 100 µM (inactive). Consider `Cc1cccc(Nc2nc(-c3ccc(O)c(C(N)=O)c3)cs2)c1`, for which the IC50 is > 100 µM (inactive). Next, `Cc1ccc(Nc2nc(-c3ccc(O)cc3O)cs2)cc1`: > 100 µM (inactive); `Cc1cccc(Nc2nc(-c3ccc(O)c(O)c3)cs2)c1`: > 100 µM (inactive); `O=S(=O)(c1ccc(NC(=S)N/N=C/c2ccc(O)c(O)c2)cc1)N1CCOCC1`: > 100 µM (inactive).

Turning to `COC(=O)C/C=N/N=C1\NC(=O)/C(=C/C(=O)O)S1`, the IC50 was > 100 µM (inactive). With `O=C(O)CC1S/C(=N/N=C/c2ccco2)NC1=O` (stereo unspecified), the IC50 was > 100 µM (inactive). Next, `Cc1ccc(-c2ccc(/C=N/N=C3\NC(=O)C(CC(=O)O)S3)o2)c([N+](=O)[O-])c1` (stereo unspecified): > 100 µM (inactive); `COc1cc(/C=N/N=C2/SCC(=O)N2c2ccc(O)cc2)ccc1O`: > 100 µM (inactive). Next, `N#CCCn1cc(/C=N/N=C2/NC(=O)C(CC(=O)O)S2)c(-c2ccc(F)cc2)n1` (stereo unspecified): > 100 µM (inactive).

Values taken from PubChem BioAssay AID493137 (Sanford-Burnham Center for Chemical Genomics, 2011).
